Test results from ChEMBL document CHEMBL3885881, “DrugMatrix”.

Species: Rattus norvegicus
Assay: DrugMatrix - Regimen: Daily Repeat
Format: toxicity, organism-based, Sprague-Dawley
Parameters: regimen Daily Repeat, gender Male, age 6-8 weeks
Conditions: in vivo, po, route oral GAVAGE, […]; for ABSOLUTE BASOPHIL / ABSOLUTE EOSINOPHIL / ABSOLUTE LYMPHOCYTE / ABSOLUTE MONOCYTE / ABSOLUTE SEGMENTED NEUTROPHIL / BASOPHIL / EOSINOPHIL / ERYTHROCYTE COUNT / HEMATOCRIT / HEMOGLOBIN / LEUKOCYTE COUNT / LYMPHOCYTE / MEAN CORPUSCULAR HEMOGLOBIN / MEAN CORPUSCULAR HEMOGLOBIN CONCENTRATION / MEAN CORPUSCULAR VOLUME / MONOCYTE / NEUTROPHIL / NUCLEATED RED BLOOD CELLS / PLATELET COUNT: tissue Blood; for ALANINE AMINOTRANSFERASE / ALBUMIN / ALKALINE PHOSPHATASE / ASPARTATE AMINOTRANSFERASE / BLOOD UREA NITROGEN / CARBON DIOXIDE / CHLORIDE / CHOLESTEROL / CREATINE PHOSPHOKINASE / CREATININE / GLUCOSE / LACTATE DEHYDROGENASE / LIPASE / PHOSPHORUS / POTASSIUM / SODIUM / TOTAL BILIRUBIN / TOTAL PROTEIN / URIC ACID: tissue Plasma
[1] = 100 mg/kg, 120 h, dose level Low, time 5 day
[2] = 448 mg/kg, 72 h, dose level High, time 3 day
[3] = 448 mg/kg, 120 h, dose level High, time 5 day

SMILES: CC(C)(Oc1ccc(Cl)cc1)C(=O)O [CLOFIBRIC ACID]
- ABSOLUTE BASOPHIL [1]: 0 CELLS/uL
- ABSOLUTE EOSINOPHIL [1]: 54.67 CELLS/uL
- ABSOLUTE LYMPHOCYTE [1]: 12665.33 CELLS/uL
- ABSOLUTE MONOCYTE [1]: 34.33 CELLS/uL
- ABSOLUTE SEGMENTED NEUTROPHIL [1]: 1712.33 CELLS/uL
- BASOPHIL [1]: 0%
- EOSINOPHIL [1]: 0.33%
- ERYTHROCYTE COUNT [1]: 5.75 x10E6/uL
- HEMATOCRIT [1]: 35.5%
- HEMOGLOBIN [1]: 14.03 G/DL
- LEUKOCYTE COUNT [1]: 14.47 x10E3/uL
- LYMPHOCYTE [1]: 87%
- MEAN CORPUSCULAR HEMOGLOBIN [1]: 24.43 pg
- MEAN CORPUSCULAR HEMOGLOBIN CONCENTRATION [1]: 39.53 G/DL
- MEAN CORPUSCULAR VOLUME [1]: 61.77 fL
- MONOCYTE [1]: 0.33%
- NEUTROPHIL [1]: 12.33%
- NUCLEATED RED BLOOD CELLS [1]: 0.33 /100WBC
- PLATELET COUNT [1]: 1147.33 x10E3/uL
- ALANINE AMINOTRANSFERASE [1]: 63.67 u/L
- ALBUMIN [1]: 4.37 G/DL
- ALKALINE PHOSPHATASE [1]: 342 u/L
- ASPARTATE AMINOTRANSFERASE [1]: 93.33 u/L
- BLOOD UREA NITROGEN [1]: 15 mg/dL
- CARBON DIOXIDE [1]: 28 mmol/L
- CHLORIDE [1]: 101.33 MEQ/L
- CHOLESTEROL [1]: 50.67 mg/dL
- CREATINE PHOSPHOKINASE [1]: 370.33 u/L
- CREATININE [1]: 0.2 mg/dL
- GLUCOSE [1]: 145.33 mg/dL
- LACTATE DEHYDROGENASE [1]: 275.67 u/L
- LIPASE [1]: 9.67 u/L
- PHOSPHORUS [1]: 11.03 mg/dL
- POTASSIUM [1]: 5.96 MEQ/L
- SODIUM [1]: 142.3 MEQ/L
- TOTAL BILIRUBIN [1]: 0.2 mg/dL
- TOTAL PROTEIN [1]: 5.73 G/DL
- URIC ACID [1]: 1.23 mg/dL
- ABSOLUTE BASOPHIL [2]: 0 CELLS/uL
- ABSOLUTE EOSINOPHIL [2]: 0 CELLS/uL
- ABSOLUTE LYMPHOCYTE [2]: 10222.33 CELLS/uL
- ABSOLUTE MONOCYTE [2]: 204.67 CELLS/uL
- ABSOLUTE SEGMENTED NEUTROPHIL [2]: 1606.33 CELLS/uL
- BASOPHIL [2]: 0%
- EOSINOPHIL [2]: 0%
- ERYTHROCYTE COUNT [2]: 5.53 x10E6/uL
- HEMATOCRIT [2]: 33.9%
- HEMOGLOBIN [2]: 13.1 G/DL
- LEUKOCYTE COUNT [2]: 12.03 x10E3/uL
- LYMPHOCYTE [2]: 85%
- MEAN CORPUSCULAR HEMOGLOBIN [2]: 23.73 pg
- MEAN CORPUSCULAR HEMOGLOBIN CONCENTRATION [2]: 38.63 G/DL
- MEAN CORPUSCULAR VOLUME [2]: 61.37 fL
- MONOCYTE [2]: 1.67%
- NEUTROPHIL [2]: 13.33%
- NUCLEATED RED BLOOD CELLS [2]: 0 /100WBC
- PLATELET COUNT [2]: 1067.33 x10E3/uL
- ALANINE AMINOTRANSFERASE [2]: 82.33 u/L
- ALBUMIN [2]: 4.4 G/DL
- ALKALINE PHOSPHATASE [2]: 525.33 u/L
- ASPARTATE AMINOTRANSFERASE [2]: 118.33 u/L
- BLOOD UREA NITROGEN [2]: 13.33 mg/dL
- CARBON DIOXIDE [2]: 33 mmol/L
- CHLORIDE [2]: 98.33 MEQ/L
- CHOLESTEROL [2]: 39 mg/dL
- CREATINE PHOSPHOKINASE [2]: 203.67 u/L
- CREATININE [2]: 0.14 mg/dL
- GLUCOSE [2]: 149.33 mg/dL
- LACTATE DEHYDROGENASE [2]: 172.67 u/L
- LIPASE [2]: 8 u/L
- PHOSPHORUS [2]: 11.27 mg/dL
- POTASSIUM [2]: 6.66 MEQ/L
- SODIUM [2]: 140.57 MEQ/L
- TOTAL BILIRUBIN [2]: 0.17 mg/dL
- TOTAL PROTEIN [2]: 5.33 G/DL
- URIC ACID [2]: 1.37 mg/dL
- ABSOLUTE BASOPHIL [3]: 0 CELLS/uL
- ABSOLUTE EOSINOPHIL [3]: 0 CELLS/uL
- ABSOLUTE LYMPHOCYTE [3]: 14966.67 CELLS/uL
- ABSOLUTE MONOCYTE [3]: 437.33 CELLS/uL
- ABSOLUTE SEGMENTED NEUTROPHIL [3]: 2729.33 CELLS/uL
- BASOPHIL [3]: 0%
- EOSINOPHIL [3]: 0%
- ERYTHROCYTE COUNT [3]: 5.64 x10E6/uL
- HEMATOCRIT [3]: 35.03%
- HEMOGLOBIN [3]: 13.4 G/DL
- LEUKOCYTE COUNT [3]: 18.13 x10E3/uL
- LYMPHOCYTE [3]: 82.67%
- MEAN CORPUSCULAR HEMOGLOBIN [3]: 23.77 pg
- MEAN CORPUSCULAR HEMOGLOBIN CONCENTRATION [3]: 38.27 G/DL
- MEAN CORPUSCULAR VOLUME [3]: 62.17 fL
- MONOCYTE [3]: 2.33%
- NEUTROPHIL [3]: 15%
- NUCLEATED RED BLOOD CELLS [3]: 0 /100WBC
- PLATELET COUNT [3]: 1012.67 x10E3/uL
- ALANINE AMINOTRANSFERASE [3]: 61 u/L
- ALBUMIN [3]: 4.6 G/DL
- ALKALINE PHOSPHATASE [3]: 409.33 u/L
- ASPARTATE AMINOTRANSFERASE [3]: 90.67 u/L
- BLOOD UREA NITROGEN [3]: 17.33 mg/dL
- CARBON DIOXIDE [3]: 28.33 mmol/L
- CHLORIDE [3]: 106.67 MEQ/L
- CHOLESTEROL [3]: 46.33 mg/dL
- CREATINE PHOSPHOKINASE [3]: 195.67 u/L
- CREATININE [3]: 0.19 mg/dL
- GLUCOSE [3]: 158 mg/dL
- LACTATE DEHYDROGENASE [3]: 194.33 u/L
- LIPASE [3]: 9.33 u/L
- PHOSPHORUS [3]: 9.7 mg/dL
- POTASSIUM [3]: 6.4 MEQ/L
- SODIUM [3]: 149.4 MEQ/L
- TOTAL BILIRUBIN [3]: 0.1 mg/dL
- TOTAL PROTEIN [3]: 5.63 G/DL
- URIC ACID [3]: 1.5 mg/dL
